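Five concentrations, 48 hours, 96-well plates. GI50 is the concentration that inhibits growth by half. At the TGI there is no net growth.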
Assays:
Assay in all cases: DTP human tumour cell line panel, 48 h
NCI-H460 lung = tested on: NCI-H460 lung
UO-31 renal = tested on: UO-31 renal
T-47D breast = tested on: T-47D breast
HCT-116 colon = tested on: HCT-116 colon
RPMI-8226 leukemia = tested on: RPMI-8226 leukemia
SN12C renal = tested on: SN12C renal
BT-549 breast = tested on: BT-549 breast
SNB-75 CNS = tested on: SNB-75 CNS
OVCAR-8 ovarian = tested on: OVCAR-8 ovarian
MDA-MB-231 breast = tested on: MDA-MB-231 breast
HS 578T breast = tested on: HS 578T breast
SK-MEL-28 melanoma = tested on: SK-MEL-28 melanoma
HL-60(TB) leukemia = tested on: HL-60(TB) leukemia
SW-620 colon = tested on: SW-620 colon
M14 melanoma = tested on: M14 melanoma
NCI-H226 lung = tested on: NCI-H226 lung
SK-OV-3 ovarian = tested on: SK-OV-3 ovarian
COLO 205 colon = tested on: COLO 205 colon
MOLT-4 leukemia = tested on: MOLT-4 leukemia
KM12 colon = tested on: KM12 colon
OVCAR-3 ovarian = tested on: OVCAR-3 ovarian
TK-10 renal = tested on: TK-10 renal
MDA-MB-435 = tested on: MDA-MB-435
HOP-62 NSCLC = tested on: HOP-62 NSCLC
HT29 colon = tested on: HT29 colon
ACHN renal = tested on: ACHN renal
A498 renal = tested on: A498 renal
SF-539 CNS = tested on: SF-539 CNS
786-0 renal = tested on: 786-0 renal
A549 NSCLC = tested on: A549 NSCLC
NCI-H522 lung = tested on: NCI-H522 lung
CCRF-CEM leukemia = tested on: CCRF-CEM leukemia
LOX IMVI melanoma = tested on: LOX IMVI melanoma
SR leukemia = tested on: SR leukemia
IGROV1 ovarian = tested on: IGROV1 ovarian
SK-MEL-5 melanoma = tested on: SK-MEL-5 melanoma
SK-MEL-2 melanoma = tested on: SK-MEL-2 melanoma
SNB-19 CNS = tested on: SNB-19 CNS
HOP-92 NSCLC = tested on: HOP-92 NSCLC
HCC-2998 colon = tested on: HCC-2998 colon
OVCAR-5 ovarian = tested on: OVCAR-5 ovarian
UACC-257 melanoma = tested on: UACC-257 melanoma
K-562 leukemia = tested on: K-562 leukemia
MALME-3M melanoma = tested on: MALME-3M melanoma
SF-268 CNS = tested on: SF-268 CNS
RXF 393 renal = tested on: RXF 393 renal
MCF7 breast = tested on: MCF7 breast
HCT-15 colon = tested on: HCT-15 colon
OVCAR-4 ovarian = tested on: OVCAR-4 ovarian
SF-295 CNS = tested on: SF-295 CNS
U251 CNS = tested on: U251 CNS
DU-145 prostate = tested on: DU-145 prostate
NCI/ADR-RES ovarian = tested on: NCI/ADR-RES ovarian
CAKI-1 renal = tested on: CAKI-1 renal
UACC-62 melanoma = tested on: UACC-62 melanoma
PC-3 prostate = tested on: PC-3 prostate

Cc1cc(Nc2nc(-c3cn(-c4ccc(Cl)cc4)nn3)nc3ccccc23)n[nH]1
GI50 (NCI-H460 lung): 5.65 µM | TGI (NCI-H460 lung): 36.3 µM | GI50 (UO-31 renal): 1.65 µM | TGI (UO-31 renal): 11.3 µM | GI50 (T-47D breast): 13.1 µM | TGI (T-47D breast): 42.3 µM | GI50 (HCT-116 colon): 7.64 µM | TGI (HCT-116 colon): 25.4 µM | GI50 (RPMI-8226 leukemia): 19.6 µM | TGI (RPMI-8226 leukemia): > 50 µM | GI50 (SN12C renal): 10.7 µM | TGI (SN12C renal): > 50 µM | GI50 (BT-549 breast): 15 µM | TGI (BT-549 breast): > 50 µM | GI50 (SNB-75 CNS): 23 µM | TGI (SNB-75 CNS): > 50 µM | GI50 (OVCAR-8 ovarian): 18.5 µM | TGI (OVCAR-8 ovarian): > 50 µM | GI50 (MDA-MB-231 breast): 17.7 µM | TGI (MDA-MB-231 breast): > 50 µM | GI50 (HS 578T breast): > 50 µM | TGI (HS 578T breast): > 50 µM | GI50 (SK-MEL-28 melanoma): 21.9 µM | TGI (SK-MEL-28 melanoma): > 50 µM | GI50 (HL-60(TB) leukemia): 18.3 µM | TGI (HL-60(TB) leukemia): > 50 µM | GI50 (SW-620 colon): 12.5 µM | TGI (SW-620 colon): > 50 µM | GI50 (M14 melanoma): 7.54 µM | TGI (M14 melanoma): > 50 µM | GI50 (NCI-H226 lung): > 50 µM | TGI (NCI-H226 lung): > 50 µM | GI50 (SK-OV-3 ovarian): 6.82 µM | TGI (SK-OV-3 ovarian): 48.5 µM | GI50 (COLO 205 colon): 38.2 µM | TGI (COLO 205 colon): > 50 µM | GI50 (MOLT-4 leukemia): 22 µM | TGI (MOLT-4 leukemia): > 50 µM | GI50 (KM12 colon): 4.95 µM | TGI (KM12 colon): > 50 µM | GI50 (OVCAR-3 ovarian): 10.5 µM | TGI (OVCAR-3 ovarian): 23.4 µM | GI50 (TK-10 renal): 6.69 µM | TGI (TK-10 renal): 39.3 µM | GI50 (MDA-MB-435): 11.6 µM | TGI (MDA-MB-435): > 50 µM | GI50 (HOP-62 NSCLC): 14 µM | TGI (HOP-62 NSCLC): > 50 µM | GI50 (HT29 colon): 23.5 µM | TGI (HT29 colon): > 50 µM | GI50 (ACHN renal): 3.62 µM | TGI (ACHN renal): > 50 µM | GI50 (A498 renal): > 50 µM | TGI (A498 renal): > 50 µM | GI50 (SF-539 CNS): 27.3 µM | TGI (SF-539 CNS): > 50 µM | GI50 (786-0 renal): 15.1 µM | TGI (786-0 renal): > 50 µM | GI50 (A549 NSCLC): 11.4 µM | TGI (A549 NSCLC): > 50 µM | GI50 (NCI-H522 lung): > 50 µM | TGI (NCI-H522 lung): > 50 µM | GI50 (CCRF-CEM leukemia): 19.5 µM | TGI (CCRF-CEM leukemia): > 50 µM | GI50 (LOX IMVI melanoma): 9.7 µM | TGI (LOX IMVI melanoma): > 50 µM | GI50 (SR leukemia): 8.78 µM | TGI (SR leukemia): 40 µM | GI50 (IGROV1 ovarian): 9.16 µM | TGI (IGROV1 ovarian): > 50 µM | GI50 (SK-MEL-5 melanoma): 20.8 µM | TGI (SK-MEL-5 melanoma): > 50 µM | GI50 (SK-MEL-2 melanoma): 8.23 µM | TGI (SK-MEL-2 melanoma): 29.8 µM | GI50 (SNB-19 CNS): > 50 µM | TGI (SNB-19 CNS): > 50 µM | GI50 (HOP-92 NSCLC): 23.6 µM | TGI (HOP-92 NSCLC): > 50 µM | GI50 (HCC-2998 colon): 36.4 µM | TGI (HCC-2998 colon): > 50 µM | GI50 (OVCAR-5 ovarian): > 50 µM | TGI (OVCAR-5 ovarian): > 50 µM | GI50 (UACC-257 melanoma): 33.4 µM | TGI (UACC-257 melanoma): > 50 µM | GI50 (K-562 leukemia): 25.8 µM | TGI (K-562 leukemia): > 50 µM | GI50 (MALME-3M melanoma): 10.8 µM | TGI (MALME-3M melanoma): 30.1 µM | GI50 (SF-268 CNS): 14.6 µM | TGI (SF-268 CNS): > 50 µM | GI50 (RXF 393 renal): 5.09 µM | TGI (RXF 393 renal): 26.1 µM | GI50 (MCF7 breast): 27 µM | TGI (MCF7 breast): > 50 µM | GI50 (HCT-15 colon): 2.17 µM | TGI (HCT-15 colon): > 50 µM | GI50 (OVCAR-4 ovarian): 10.1 µM | TGI (OVCAR-4 ovarian): > 50 µM | GI50 (SF-295 CNS): 7.6 µM | TGI (SF-295 CNS): 38.5 µM | GI50 (U251 CNS): 9.39 µM | TGI (U251 CNS): > 50 µM | GI50 (DU-145 prostate): 10.7 µM | TGI (DU-145 prostate): > 50 µM | GI50 (NCI/ADR-RES ovarian): 1.58 µM | TGI (NCI/ADR-RES ovarian): > 50 µM | GI50 (CAKI-1 renal): 2.31 µM | TGI (CAKI-1 renal): 14.7 µM

COc1cccc(/C=C/C(=O)c2c(C)nc3ccccc3c2/C=C/c2ccccc2)c1OC
GI50 (HS 578T breast): 3.59 µM | TGI (HS 578T breast): > 100 µM | GI50 (SK-OV-3 ovarian): 54.1 µM | TGI (SK-OV-3 ovarian): > 100 µM

c1coc(-c2c3ccc(=[N+]4CCCCC4)cc-3oc3cc(N4CCCCC4)ccc23)c1
GI50 (UO-31 renal): 0.0353 µM | TGI (UO-31 renal): 0.336 µM | GI50 (SN12C renal): 0.0591 µM | TGI (SN12C renal): 0.278 µM | GI50 (BT-549 breast): 0.191 µM | TGI (BT-549 breast): 0.865 µM | GI50 (SNB-75 CNS): 0.0903 µM | TGI (SNB-75 CNS): 0.588 µM | GI50 (OVCAR-8 ovarian): 0.0449 µM | TGI (OVCAR-8 ovarian): 1.1 µM | GI50 (SK-MEL-28 melanoma): 0.114 µM | TGI (SK-MEL-28 melanoma): 0.854 µM | GI50 (HL-60(TB) leukemia): 0.0921 µM | TGI (HL-60(TB) leukemia): 0.468 µM | GI50 (NCI-H226 lung): 0.138 µM | TGI (NCI-H226 lung): 1.87 µM | GI50 (SK-OV-3 ovarian): 0.246 µM | TGI (SK-OV-3 ovarian): 0.819 µM | GI50 (MOLT-4 leukemia): 0.0463 µM | TGI (MOLT-4 leukemia): 0.903 µM | GI50 (OVCAR-3 ovarian): 0.033 µM | TGI (OVCAR-3 ovarian): 0.126 µM | GI50 (TK-10 renal): 0.036 µM | TGI (TK-10 renal): 0.382 µM | GI50 (HOP-62 NSCLC): 0.0905 µM | TGI (HOP-62 NSCLC): 0.435 µM | GI50 (ACHN renal): 0.0327 µM | TGI (ACHN renal): 0.12 µM | GI50 (A498 renal): 0.0784 µM | TGI (A498 renal): 0.568 µM | GI50 (UACC-62 melanoma): 0.102 µM | TGI (UACC-62 melanoma): 1.09 µM | GI50 (786-0 renal): 0.0455 µM | TGI (786-0 renal): 0.424 µM | GI50 (CCRF-CEM leukemia): 0.0306 µM | TGI (CCRF-CEM leukemia): 1.11 µM | GI50 (SK-MEL-5 melanoma): 0.177 µM | TGI (SK-MEL-5 melanoma): 0.471 µM | GI50 (SK-MEL-2 melanoma): 0.119 µM | TGI (SK-MEL-2 melanoma): 1.09 µM | GI50 (SNB-19 CNS): 0.195 µM | TGI (SNB-19 CNS): 1.56 µM | GI50 (HOP-92 NSCLC): 0.0502 µM | TGI (HOP-92 NSCLC): 0.19 µM | GI50 (HCC-2998 colon): 0.0751 µM | TGI (HCC-2998 colon): 0.331 µM | GI50 (OVCAR-5 ovarian): 0.0946 µM | TGI (OVCAR-5 ovarian): 1.12 µM | GI50 (UACC-257 melanoma): 0.0432 µM | TGI (UACC-257 melanoma): 0.191 µM | GI50 (K-562 leukemia): 0.0541 µM | TGI (K-562 leukemia): > 100 µM | GI50 (MALME-3M melanoma): 0.0423 µM | TGI (MALME-3M melanoma): 0.184 µM | GI50 (SF-268 CNS): 0.0667 µM | TGI (SF-268 CNS): 0.472 µM | GI50 (RXF 393 renal): 0.0437 µM | TGI (RXF 393 renal): 0.228 µM | GI50 (PC-3 prostate): 0.0702 µM | TGI (PC-3 prostate): 1.06 µM | GI50 (OVCAR-4 ovarian): 0.0707 µM | TGI (OVCAR-4 ovarian): 0.883 µM | GI50 (SF-295 CNS): 0.0937 µM | TGI (SF-295 CNS): 0.417 µM | GI50 (DU-145 prostate): 0.088 µM | TGI (DU-145 prostate): 0.475 µM | GI50 (CAKI-1 renal): 0.0313 µM | TGI (CAKI-1 renal): 0.105 µM
